# US20160263258A1, “Radiotracer introduced [18F]fluoromethyl group targeting neuroinflammation for PET imaging and Synthesis of Radiotracer and its biological evaluation Method for Radiotracer” (Bio Imaging Korea Co., Ltd., priority 2013, published 2016)
# How the values were obtained:
# [1] = system: LPS-induced brain neuroinflammation rat model; test: PET imaging in LPS-induced brain neuroinflammation rat model; assay type: in vivo; conditions: for time of uptake (faster uptake): PET time-activity, after injection; for accumulation in LPS-injected inflammatory region versus contralateral region: PET, tail vein injection, 4 days after LPS
# Protocol: (§1) To construct a neuroinflammation rat model, male Sprague-Dawley rats with a weight of 200-250 g were used. Each of the rats was anesthetized, and the cranium was exposed and then drilled with a bone drill to form a small hole. Thereafter, 50 μg of LPS (lipopolysaccharide) was injected into the rat body by a Hamilton syringe at a flow rate of […] (AP, 0.8 mm; L, −2.7 mm; and P, −5.0 mm from the bregma). LPS was maintained for 10 minutes to prevent LPS from flowing backward in the Hamilton syringe, and then the small hole of the cranium was filled with wax and the incised scalp was closed.
# At 4 days after LPS injection into five rats (227.98±3.8 g), positron emission tomography (PET) images were acquired. The rats were subjected to PET imaging for 120 minutes after injection of [^11C]PBR28 or the [^18F]fluoromethyl group-introduced radiotracer into the tail vein of the neuroinflammation model. First, a [^11C]PBR28 image was acquired from the neuroinflammation model, and after six-half lives ([…]) when the remaining radioactivity disappeared, an image of the [^18F]fluoromethyl group-introduced radiotracer was acquired.
# [2] = pH 7.4
# Protocol: For the measurement of lipophilicity, each of the [^18F]fluoromethyl group-introduced radiotracer and [^11C]PBR28 (about 0.74 MBq) in 5% ethanol/saline was added to and mixed with n-octanol (5 mL) and sodium phosphate buffer (5.0 mL, 0.15 M, pH 7.4), and then lipophilicity was measured four times. The radioactivity of the sample (100 μL) in each sample was measured, and the lipophilicity was calculated as the ratio of counts per minute to sodium phosphate buffer and n-octanol.
# [3] = Metabolism of radiotracer in brain of neuroinflammation model rats (HPLC); assay type: in vivo, rat
# Protocol: The [^18F]fluoromethyl group-introduced radiotracer (about 37 MBq, 5% ethanol/saline) was injected into the vein of the neuroinflammation model rats through the tail vein. After 30 and 60 minutes, the rats were sacrificed, and brain samples were collected therefrom, after which the metabolism of the fluorine-18-labeled radiotracer was measured by HPLC. As a result, the amount of the [^18F]fluoromethyl group-introduced radiotracer in the rat brain was 97.3% 30 minutes after injection and 96.8% 60 minutes after injection. Other radioactive metabolites, excluding 2-3% fluorine-18, were not observed in HPLC up to 60 minutes after injection. In contrast, according to previous studies, it is known that, in the case of [^11C]PBR28, radioactive metabolites exist in an amount of about 10-15%, thereby giving false images.
# [4] = according to previous studies; cited from earlier work
# [5] = background art; cited from earlier work
# TSPO = biological target: T1, TSPO (Rattus norvegicus, UniProt P16257); test: Selective/specific PET imaging: inhibition image by co-injection with the radiotracer; assay type: in vivo
# T1 construct: from tissue; host or cells: brain of living LPS-injected Sprague-Dawley rats (PET imaging)
# Protocol: as §1
smiles,measurement,setting,value
CC(=O)N(Cc1ccccc1OC[18F])c1cnccc1Oc1ccccc1 [N-(2-[^18F]fluoromethoxybenzyl)-N-(4-phenoxypyridin-3-yl)acetamide],time of uptake (faster uptake),[1],4.5 min
same,accumulation in LPS-injected inflammatory region versus contralateral region,[1],more selectively accumulated in the LPS-injected inflammatory region than the contralateral region
same,"uptake, times higher","[1]; for about 2 hours, p=0.009",at least 3.0 times
same,lipophilicity,[2],2.85±0.02
same,amount of radiotracer in the rat brain,[3]; 30 minutes after injection,97.3%
same,amount of radiotracer in the rat brain,[3]; 60 minutes after injection,96.8%
same,fluorine-18 (radioactive metabolite) in brain,[3]; up to 60 minutes after injection,2-3%
"CC(=O)N(Cc1ccccc1O[11CH3])c1ccc(Oc2ccccc2)nc1 [[^11C]PBR28, N-acetyl-N-(2-[^11C]methoxybenzyl)-2-phenoxy-5-pyridinamine]","radioactive metabolites, amount",[4],10-15%
same,time of uptake (faster uptake),[1],20 min
same,accumulation in LPS-injected inflammatory region versus contralateral region,[1],more selectively accumulated in the LPS-injected inflammatory region than the contralateral region
same,inflammatory region/contralateral region ratio,[1]; at 90 min,3.4 times
same,lipophilicity,[2],3.01±0.01
COc1ccc(OC)c(CN(C(C)=O)c2cc(F)ccc2Oc2ccccc2)c1 [[^11C]DAA1106],uptake relative to [11C]-(R)-PK11195,[5],at least 4 times
CCC(C)N(C)C(=O)c1cc2ccccc2c(-c2ccccc2Cl)n1 (stereo not drawn) [PK11195],inhibition of radiotracer uptake in the inflammatory region,TSPO; 10 mg/kg injected simultaneously with the [18F] radiotracer,about 66%
CCOC(=O)c1ncn2c1CN(C)C(=O)c1cc(F)ccc1-2 [Flumazenil],influence on uptake of the fluorine-18-labeled radiotracer in the inflammatory region,"TSPO; 5 mg/kg injected simultaneously with the [18F] radiotracer, CBR ligand",did not influence the uptake
